Where a name gives a salt, the structure may show the parent alone.

One test addresses T1, 5-HT1A receptor (Rattus norvegicus, UniProt P19327).
T1 construct: synaptosomal membranes isolated from cerebral cortex; from tissue; host or cells: rat cerebral cortex, crude synaptosomal membranes (male Sprague-Dawley rats, Harlan Industries)
T1 sequence (P19327 1-422): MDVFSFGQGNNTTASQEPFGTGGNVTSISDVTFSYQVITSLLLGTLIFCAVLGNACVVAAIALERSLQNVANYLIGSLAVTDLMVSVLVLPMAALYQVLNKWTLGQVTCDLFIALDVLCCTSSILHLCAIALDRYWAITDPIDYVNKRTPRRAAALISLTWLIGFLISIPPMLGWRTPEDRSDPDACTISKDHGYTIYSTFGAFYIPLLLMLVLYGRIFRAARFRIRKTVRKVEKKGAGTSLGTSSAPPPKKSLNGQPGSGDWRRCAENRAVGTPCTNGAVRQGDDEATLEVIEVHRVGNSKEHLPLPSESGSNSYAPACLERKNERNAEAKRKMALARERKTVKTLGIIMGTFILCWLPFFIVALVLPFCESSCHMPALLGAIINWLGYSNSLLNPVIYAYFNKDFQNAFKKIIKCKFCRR
Briefly: Inhibition of 3H-8-OH-DPAT binding to rat cerebral cortex synaptosomal membranes (binding at 5HT1a in vitro).
Conditions: not given
Further details: species or system rat (male Sprague-Dawley). How it is done: This general procedure is set forth in Wong et al., J. Neural Transm. 71:207-218 (1988).
Male Sprague-Dawley rats (110-150 g) from Harlan Industries (Cumberland, Ind.) were fed a Purina Chow ad libitum for at least 3 days before being used in the studies. Rats were killed by decapitation. The brains were rapidly removed, and the cerebral cortices were dissected out at 4° C.
Brain tissues were homogenized in 0.32M sucrose. After centrifugation at 1000×g for 10 min and then at 17000×g for 20 min, a crude synaptosomal fraction was sedimented. The pellet was suspended in 100 vol of 50 mM Tris-HCl, pH 7.4, incubated at 37° C. for 10 min, and centrifuged at 50000×g for 10 min. The process was repeated and the final pellet was suspended in ice-chilled 50 mM Tris-HCl, pH 7.4. By the radioligand binding method, sites specifically labeled by tritiated 8-hydroxy-2-dipropylamino-1,2,3,4-tetrahydronaphthalene (^3 H-8-OH-DPAT) have been identified as 5-HT1A receptors.
Binding of (^3 H-8-OH-DPAT) was performed according to the previously described method [Wong et al., J. Neural Transm. 64:251-269 (1985)]. Briefly, synaptosomal membranes isolated from cerebral cortex were incubated at 37° C. for 10 min. in 2 ml of 50 mM Tris-HCl, pH 7.4; 10 μM pargyline; 0.6 mM ascorbic acid; 0.4 nM ^3 H-8-OH-DPAT; and from 1 to 1000 nM of test compound. Binding was terminated by filtering samples under reduced pressure through glass fiber (GFB) filters. The filters were washed twice with 5 ml of ice cold buffer and placed in scintillation vials with 10 ml of PCS (Amersham/Searle) scintillation fluid. Radioactivity was measured with a liquid scintillation spectrometer. Unlabeled 8-OH-DPAT at 10 μM was also included in separate samples to establish non-specific binding. Specific binding of ^3 H-8-OH-DPAT is defined as the difference of radioactivity bound in the absence and in the presence of 10 μM unlabeled 8-OH-DPAT.
Take `CCCN(CCC)C1CCc2cccc(C(=O)C(C)(C)C)c2C1` (stereo not drawn) [Example 7, 2-Di-n-propylamino-8-dimethylpropionyl-1,2,3,4-tetrahydronaphthalene, hydrobromide salt]: the IC50 amounted to 9 nM.

Still in this test, the particulars now being: rat cerebral cortex membranes; 0.4 nM 3H-8-OH-DPAT; 37° C., 10 min; pH 7.4; read-out: IC50, concentration of test compound required to inhibit the binding of 3H-8-OH-DPAT by 50%.
On to `CCCCC(=O)c1cccc2c1CC(N(CCC)CCC)CC2` (stereo not drawn) [Example 1, 2-Di-n-propylamino-8-pentanoyl-1,2,3,4-tetrahydronaphthalene, oxalate salt], for which the IC50 is 2.2 nM.

As for `CCCN(CCC)C1CCc2cccc(C(=O)C(F)(F)F)c2C1` (stereo not drawn) [Example 2, 2-Di-n-propylamino-8-trifluoroacetyl-1,2,3,4-tetrahydronaphthalene, hydrobromide salt], the IC50 turned out to be 29 nM.

For the compound `CCCN(CCC)C1CCc2cccc(C(=O)CC)c2C1` (stereo not drawn) [Example 3, 2-Di-n-propylamino-8-propionyl-1,2,3,4-tetrahydronaphthalene, oxalate salt], the IC50 stood at 0.8 nM.

As for `CCCC(=O)c1cccc2c1CC(N(CCC)CCC)CC2` (stereo not drawn) [Example 4, 2-Di-n-propylamino-8-butanoyl-1,2,3,4-tetrahydronaphthalene,hydrobromide salt], the IC50 is 3 nM.

With `CCCN(CCC)C1CCc2cccc(C(=O)C(C)C)c2C1` (stereo not drawn) [Example 5, 2-Di-n-propylamino-8-(α-methylpropionyl)-1,2,3,4-tetrahydronaphthalene, hydrobromide salt], the IC50 stood at 0.4 nM.

Consider `CCCN(CCC)C1CCc2cccc(C(=O)CC(C)C)c2C1` (stereo not drawn) [Example 6, 2-Di-n-propylamino-8-(β-methylbutyryl)-1,2,3,4-tetrahydronaphthalene,hydrobromide salt], for which the IC50 came out at 0.4 nM.

Turning to `CCCN(CCC)C1CCc2cccc(C(=O)C3CCCCC3)c2C1` (stereo not drawn) [Example 8, 2-Di-n-propylamino-8-cyclohexanecarbonyl-1,2,3,4-tetrahydronaphthalene, oxalate salt], the IC50 worked out at 0.5 nM.

As for `CCCN(CCC)C1CCc2cccc(C(=O)c3ccccc3)c2C1` (stereo not drawn) [Example 9, 2-Di-n-propylamino-8-benzoyl-1,2,3,4-tetrahydronaphthalene, tosylate salt], the IC50 came to 3.7 nM.

In the case of `CCCN(CCC)C1CCc2cccc(C(=O)c3ccccc3F)c2C1` (stereo not drawn) [Example 11, 2-Di-n-propylamino-8-(o-fluorobenzoyl)-1,2,3,4-tetrahydronaphthalene, p-toluenesulfonic acid salt], the IC50 amounted to 0.8 nM.

On to `CCCN(CCC)C1CCc2cccc(C(=O)COC)c2C1` (stereo not drawn) [Example 12, 2-Di-n-propylamino-8-(methoxyacetyl)-1,2,3,4-tetrahydronaphthalene oxalate], for which the IC50 turned out to be 5.8 nM.

For the compound `CCCN(CCC)C1CCc2cccc(C(C)=O)c2C1` (stereo not drawn) [Example 13, 2-Di-n-propylamino-8-acetyl-1,2,3,4-tetrahydronaphthalene], the IC50 is 0.8 nM.
